Reference: patent publication US20100093716A1, “THERAPEUTIC METHODS USING WRN BINDING MOLECULES” (TRUSTEES OF BOSTON UNIVERSITY AND PRESIDENT AND FELLOWS OF …, priority 2006, published 2010)

What was measured:
Histone H2AX (γH2AX) [1] = experiment: γH2AX formation in human fibroblasts by immunofluorescent microscopy; assay type: cell-based; conditions: 48 hours
Procedure: Phosphorylation of Histone H2AX (forming γH2AX) is a marker for DNA damage in many settings and is also observed at telomeres when cells enter senescence. […] In both experiments, cells were incubated for 48 hours in the presence of SPOX-1 or 11mer T-oligo before processing for immunofluorescent microscopy.

[2] = tested on: ataxia telanglectasia mutated (ATM) kinase; experiment: phosphorylation of ATM at serine 1981 in MM-AN cells, Western blot; assay type: cell-based, human; conditions: 40 μM, 48 hours
Procedure: Phosphorylated ATM in turn phosphorylates, and thus activates, p53. MM-AN cells were treated with diluent (medium or DMSO) alone, 40 μM of […] or 40 μM of SPOX-2 for 48 hours then collected and analyzed by Western blot using an antibody against ATM phosphoserine 1981.

[3] = tested on: WRN− U20S human osteosarcoma cells; experiment: apoptosis of WRN− U20S cells by FACS analysis; assay type: cell-based; conditions: 96 hours; 20 μM
Procedure: Cultures of WRN+ and WRN− U20S human osteosarcoma cells were treated with either diluent (water or DMSO) alone, 16mer T-oligo (SEQ ID NO: 2) or SPOX-1 for 96 hours, then collected and processed for FACS analysis. One concentration of the 16mer T-oligo was tested, 20 μM, and three concentrations of SPOX-1 were tested, 10 μM, 40 μM and 80 μM.

human fibroblasts = experiment: growth of newborn fibroblast cells; assay type: cell-based; conditions: 40 μM; growth determined 2 and 4 days after plating
Procedure: The effect of SPOX compounds on growth of human fibroblasts was tested using cultures of newborn fibroblast cells. Briefly, 20,000 cells were plated per 35 mm dish. Medium containing either diluent (dimethyl sulfoxide (DMSO)) alone, SPOX-1 (40 μM) SPOX-2 (40 μM) or 11mer T-oligo (SEQ ID NO:1) was introduced at 96 hours and growth was determined 2 and 4 days after plating.

[4] = tested on: MM-AN human melanoma cells; experiment: apoptosis of MM-AN melanoma cells by FACS analysis (propidium iodide); assay type: cell-based; conditions: 10 μM, 40 μM and 80 μM
Procedure: Cultures of MM-AN human melanoma cells were treated with diluent (water or DMSO) alone, a T-oligo (16mer: 5′ GTTAGGGTTAGGGTTA 3′; SEQ ID NO: 2), SPOX-1, or SPOX-2 for 96 hours, then collected and processed for FACS analysis. One concentration of the T-oligo (20 μM) and three concentrations of each SPOX compound (10 μM, 40 μM and 80 μM) were tested. Each bar is the mean of triplicate dishes +/− standard error of the mean (SEM). FACS profiles are depicted at the top of the figure.
Cultures of MM-AN human melanoma cells were treated with diluent (water or DMSO) alone, 16mer T-oligo (SEQ ID NO: 2), SPOX-337, SPOX-338 or SPOX-343 for 72 hours, then collected and processed for FACS analysis. One concentration of the T-oligo (20 μM) and three concentrations of each SPOX compound (10 μM, 40 μM and 80 μM) were tested.

[5] = tested on: MM-AN human melanoma cells; experiment: growth of MM-AN melanoma cells; assay type: cell-based; conditions: 40 μM; 2, 3 and 4 days after treatment
Procedure: The effect of SPOX compounds on growth of human melanoma cells was tested using cultures of MM-AN cells. Briefly, 20,000 MM-AN cells were plated per 35 mm dish. Medium containing either diluent (DMSO) alone, SPOX-1 or SPOX-2 (40 μM) was introduced at 96 hours and growth was determined 2, 3 and 4 days after treatment.

MCF-7 cells = experiment: growth of MCF-7 breast cancer cells; assay type: cell-based, human; conditions: for growth of MCF-7 cells: 10 μM; for growth of MCF-7 cells at highest concentration: 80 μM, 3 days after plating; for growth arrest of malignant cells: summary statement
Procedure: The effect of SPOX compounds on growth and apoptosis of human breast cancer cells was tested using cultures of MCF-7 cells. The effect on cell growth was tested by plating 20,000 cells per 35 mm dish. Medium containing either diluent alone (DMSO), SPOX-1 or SPOX-2 (10 μM, 40 μM and 80 μM) was introduced at 96 hours and growth was determined 8 days after plating.
The effect of SPOX compounds on growth of human breast cancer cells was tested using cultures of MCF-7 cells. The effect on cell growth was tested by plating 20,000 cells per 35 mm dish. Medium containing either diluent (water or DMSO) alone, SPOX-337, SPOX-388, SPOX-343 (10 μM, 40 μM and 80 μM) or 16mer T-oligo (SEQ ID NO: 2) was introduced at 96 hours and growth was determined 3 days after plating.

Histone H2AX (γH2AX) [6] = experiment: γH2AX formation in MCF-7 cells, western blot; assay type: cell-based, human; conditions: compared with 16mer T-oligo
Procedure: (§1) Phosphorylation of Histone H2AX (forming γH2AX) was assessed as a marker for DNA damage. Apoptosis was measured by western blot analysis to show cleavage of poly(ADP-ribose) polymerase (PARP). PARP is a substrate for caspase-3, an enzyme that mediates apoptosis, and thus cleavage of PARP by caspase-3 is indicative of ongoing apoptosis. […] Thus, both SPOX compounds induce apoptosis and formation of γH2AX, as a marker of DNA damage-like responses, in the MCF-7 breast cancer cell line.

[7] = tested on: poly(ADP-ribose) polymerase (PARP); experiment: PARP cleavage in MCF-7 cells, western blot; assay type: cell-based, human; conditions: compared with TNF-α
Procedure: as §1

human skin explants = experiment: melanogenesis in human skin explants (Fontana Masson stain, image analysis); assay type: cell-based; conditions: 80 uM; 24, 48 and 72 hours; positive control pTT 100 uM
Procedure: Normal facial skin removed from a person at the time of facelift was carefully cut into fragments approximately 5×5 mm. The fragments were placed in tissue culture dishes in standard culture medium, under conditions known to maintain the fragments in good condition, responsive to physiologic stimuli, for at least one week (Arad et al, FASEB J. Jul. 28, 2006. [Epub]). Fragments were arranged with at least 3 per 35 mm dish and after 48 hours, one dish each was provided with fresh medium containing diluent (DMSO) alone (Dil) or SPOX-1 or SPOX-2 each at 80 uM or thymidine dinucleotide (pTT) at 100 uM as a positive control. […] The 72 hour diluent (Dil) control sample was judged to be bacterially contaminated, affecting both the overall histology and the apparent melanin content, which based on earlier experiments would be expected to be the same as at 24 and 48 hours. All other samples were believed to be healthy and to accurately represent the response to treatment.

survivin = survivin expression in H460 lung cancer cells; assay type: cell-based, human
Procedure: The ability of the SPOX compounds to inhibit expression of survivin, a member of the Inhibitor of Apoptosis Protein (IAP) family, was determined by treating H460 human lung cancer cells for two days with diluent (DMSO) alone, SPOX-1 (20 μM, 40 μM), SPOX-2 (20 μM, 40 μM) and T-oligo (16mer: 5′ GGTTGGTTGGTTGGTT 3′; SEQ ID NO: 3) (20 μM, 40 μM) or for 24 hours with SPOX-1 (80 μM) or SPOX-2 (80 μM). Following treatment, cells were collected, counted, and assayed for survivin expression. The results are depicted in FIG. 15.

[8] = tested on: H460 human lung cancer cells; experiment: growth of H460 lung cancer cells; assay type: cell-based; conditions: 40 μM; 1, 2, 3 and 4 days after plating
Procedure: The effect of SPOX compounds on growth of human lung cancer cells was tested using cultures of H460 cells. Briefly, 20,000H460 cells were plated per 35 mm dish. Medium containing either diluent (DMSO) alone, SPOX-1 or SPOX-2 (40 μM) was introduced at 96 hours and growth was determined 1, 2, 3 and 4 days after plating.

p53 = p53 level in human fibroblasts, Western blot; assay type: cell-based; conditions: 48 hours, compared with diluent alone
Procedure: (§2) Human fibroblasts were treated with diluent (water or DMSO) alone, SPOX-1, SPOX-2, or 16mer T-oligo (SEQ ID NO: 2) for 48 hours after which total cellular proteins were harvested and Western blot analysis performed using anti-p53 and anti-p21 antibodies.

p21 = p21 level in human fibroblasts, Western blot; assay type: cell-based; conditions: 48 hours, compared with diluent alone
Procedure: as §2

[9] = 40 μM and 80 μM, growth determined 3 days after plating

## 11mer T-oligo: telomere homolog oligonucleotide, 11mer: 5′ GTTAGGGTTAG 3′; SEQ ID NO: 1 (listed as DNA, further chemistry not given here) [reference compound]
Histone H2AX (γH2AX) [1]
  γH2AX expression: induce γH2AX expression
[2]
  phosphorylation of ATM at serine 1981: induce phosphorylation of ATM

## 16mer T-oligo (SEQ ID NO: 2): telomere homolog oligonucleotide, 16mer: 5′ GTTAGGGTTAGGGTTA 3′; SEQ ID NO: 2 (listed as DNA, further chemistry not given here) [reference compound]
[3]
  induction of apoptosis in WRN− versus WRN+ U20S cells: less effective in inducing apoptosis in WRN− than in U20S cells with intact WRN

## C=CCOC(=O)C1C2C(=O)OC(c3ccccc3)C(c3ccccc3)N2C(c2ccc(O)cc2)C12C(=O)Nc1ccc(I)cc12 (stereo not drawn) [SPOX-2]
Human fibroblasts
  growth of human fibroblast cells: inhibited growth
[4]; 96 hours
  induction of apoptosis: induced apoptosis
[5]
  growth of MM-AN cells: inhibited growth
[2]
  phosphorylation of ATM at serine 1981: induce phosphorylation of ATM
MCF-7 cells; 40 μM and 80 μM, growth determined 8 days after plating
  growth of MCF-7 cells: inhibited growth of MCF-7 cells in a dose-dependent manner
MCF-7 cells; 40 μM and 80 μM, 8 days after plating
  growth of MCF-7 cells at higher concentrations: nearly complete inhibition of growth
Histone H2AX (γH2AX) [6]
  phosphorylation of histone H2AX (γH2AX): cause phosphorylation of the histone protein H2AX
[7]
  PARP cleavage: cause PARP cleavage
Human skin explants
  melanogenesis (tanning) in human skin: caused tanning, comparable to pTT
survivin; 24 hours, 80 μM
  survivin expression at 80 μM: reduced survivin expression to nearly undetectable levels
survivin; 2 days, 20 μM, 40 μM
  survivin expression: dose-dependent reduction in survivin expression
survivin; 2 days, 40 μM
  survivin expression at 40 μM: nearly undetectable
[8]
  growth of H460 cells: inhibited growth
p53
  level of p53: induced the level of p53
p21
  level of p21: induced the level of the p53-dependent downstream effector protein p21 to a similar degree as 16mer T-oligo

## C=CCOC(=O)C1C2C(=O)OC(c3ccccc3)C(c3ccccc3)N2C(c2ccc(OCCO)cc2)C12C(=O)Nc1ccc(I)cc12 (stereo not drawn) [SPOX-337]
[4]; 72 hours
  induction of apoptosis: induced apoptosis with SPOX-337 and SPOX-343 having greatest effect
MCF-7 cells; [9]
  growth of MCF-7 cells: inhibited growth of MCF-7 cells in a dose-dependent manner
MCF-7 cells
  growth of MCF-7 cells at highest concentration: nearly complete inhibition of growth
  growth arrest of malignant cells: retain the capability of arresting the growth of malignant cells

## C=CCOC(=O)C1C2C(=O)OC(c3ccccc3)C(c3ccccc3)N2C(c2ccc(OCCO)cc2)C12C(=O)Nc1ccccc12 (stereo not drawn) [SPOX-338]
[4]; 72 hours
  induction of apoptosis: induced apoptosis
MCF-7 cells; [9]
  growth of MCF-7 cells: inhibited growth of MCF-7 cells in a dose-dependent manner
MCF-7 cells
  growth of MCF-7 cells at highest concentration: nearly complete inhibition of growth
  growth arrest of malignant cells: retain the capability of arresting the growth of malignant cells

## C=CCOC(=O)C1C2C(=O)OC(c3ccccc3)C(c3ccccc3)N2C(c2ccc(O)cc2)C12C(=O)Nc1ccccc12 (stereo not drawn) [SPOX-343]
[4]; 72 hours
  induction of apoptosis: induced apoptosis with SPOX-337 and SPOX-343 having greatest effect
MCF-7 cells; [9]
  growth of MCF-7 cells: inhibited growth of MCF-7 cells in a dose-dependent manner
MCF-7 cells
  growth of MCF-7 cells at highest concentration: nearly complete inhibition of growth
  growth arrest of malignant cells: retain the capability of arresting the growth of malignant cells
